Source: patent US9738613B2, “Substituted 1,2,3-triazoles as antitumor agents” (National Central University, priority 2015, dated 2017)
Counter-ions that a name gives are not always drawn. Like-named read-outs stand apart in the source and are kept apart here.

Experiments:
DU-145 cells = assay: Sulforhodamine B (SRB) growth inhibition assay, DU-145 cells; assay type: cell-based, Human
Description: (§1) Human hormone-refractory prostate cancer cell lines PC-3 and DU-145 were from American Type Culture Collection (Rockville, MD). Cells were cultured in RPMI 1640 medium with 10% FBS (v/v) and penicillin (100 U/ml)/streptomycin (100 μg/ml). Cultures were maintained in a humidified incubator at 37° C. in 5% CO2/95% air.
(§2) Cells were seeded in 96-well plates in medium with 5% FBS. After 24 hours, cells were fixed with 10% TCA to represent cell population at the time of drug addition (T0). After additional incubation of DMSO or the compound for 48 hours (PC-3 cells) or 72 hours (DU145 cells), cells were fixed with 10% TCA and SRB at 0.4% (w/v) in 1% acetic acid was added to stain cells. Unbound SRB was washed out by 1% acetic acid and SRB bound cells were solubilized with 10 mM Trizma base. The absorbance was read at a wavelength of 515 nm. Using the following absorbance measurements, such as time zero (T0), control growth (C), and cell growth in the presence of the compound (Tx), the percentage growth was calculated at each of the compound concentrations levels. Percentage growth inhibition was calculated as: [1−(Tx−T0)/(C−T0)]×100%. Growth inhibition of 50% (IC50) is determined at the compound concentration which results in 50% reduction of total protein increase in control cells during the compound incubation. Data are expressed as mean±SEM of three to five determinations.

PC-3 cells = assay: Sulforhodamine B (SRB) growth inhibition assay, PC-3 cells; assay type: cell-based, Human
Description: as §1, §2

[1] = Homo sapiens, DU-145 cells, 72 hours, bound stated, read-out: IC50 in DU-145 cells (text summary of Table 1)
[2] = human hormone-refractory prostate cancer DU-145 cells, 72 hours incubation, read-out: DU-145 cells IC50
[3] = Homo sapiens, PC-3 cells, 48 hours, bound stated, read-out: IC50 in PC-3 cells (text summary of Table 1)
[4] = human hormone-refractory prostate cancer PC-3 cells, 48 hours incubation, read-out: PC-3 cells IC50

| IC50 (DU-145 cells; [1]) | IC50 (DU-145 cells; [2]) | IC50 (PC-3 cells; [3]) | IC50 (PC-3 cells; [4]) | Molecule |
| --- | --- | --- | --- | --- |
| < 10 µM | 6.2 µM | < 5 µM | 3.8 µM | CCCCCCCCCCCCCCCCCCCCn1cc(CC(N)(CO)CO)nn1 [Compound 8, 2-Amino-2-((1-icosyl-1H-1,2,3-triazol-4-yl)methyl)propane-1,3-diol hydrochloride] |
| < 5 µM | 2.4 µM | < 5 µM | 3.6 µM | CCCCCCCCCCCCCCCCCCn1cc(CCC(N)(CO)CO)nn1 [Compound 4, 2-Amino-2-(2-(1-octadecyl-1H-1,2,3-triazol-4-yl)ethyl)propane-1,3-diol hydrochloride] |
| – | > 10 µM | < 10 µM | 7.9 µM | CCCCCCCCCCCCCCCCCCn1cc(CC(N)(C(=O)OCC)C(=O)OCC)nn1 [Compound 7, Diethyl 2-amino-2-((1-octadecyl-1H-1,2,3-triazol-4-yl)methyl)malonate hydrochloride] |
| < 10 µM | 5.7 µM | < 5 µM | 4.5 µM | CCCCCCCCCCCCCCCCCCn1cc(CC(N)(CO)CO)nn1 [Compound 3, 2-Amino-2-((1-octadecyl-1H-1,2,3-triazol-4-yl)methyl)propane-1,3-diol hydrochloride] |

The remaining lines, values behind:

| Molecule | IC50 (DU-145 cells; [1]) | IC50 (DU-145 cells; [2]) | IC50 (PC-3 cells; [3]) | IC50 (PC-3 cells; [4]) |
| --- | --- | --- | --- | --- |
| CCCCCCCCCCCCCCn1cc(CCCC(N)(CO)CO)nn1 [Compound 9, 2-Amino-2-(3-(1-tetradecyl-1H-1,2,3-triazol-4-yl)propyl)propane-1,3-diol hydrochloride] | < 10 µM | 5.4 µM | < 5 µM | 4.2 µM |
| CCCCCCCCCCCCCCCCn1cc(CCC(N)(CO)CO)nn1 [Compound 6, 2-Amino-2-(2-(1-hexadecyl-1H-1,2,3-triazol-4-yl)ethyl)propane-1,3-diol hydrochloride] | – | – | < 10 µM | 6.2 µM |
| 2-Amino-2-(4-(1-tetradecyl-1H-1,2,3-triazol-4-yl)butyl)propane-1,3-diol hydrochloride [Compound 10] | – | 6.2 µM | – | 8.97 µM |
| CCCCCCCCCCCCCCn1cc(CC(N)(CO)CO)nn1 [Compound 1, 2-Amino-2-((1-tetradecyl-1H-1,2 ,3-triazol-4-yl)methyl)propane-1,3-diol hydrochloride] | < 5 µM | 4.7 µM | < 5 µM | 4.9 µM |
| CCCCCCCCCCCCCCCCn1cc(CC(N)(CO)CO)nn1 [Compound 2, 2-Amino-2-((1-hexadecyl-1H-1,2,3-triazol-4-yl)methyl)propane-1,3-diol hydrochloride] | < 10 µM | 5.3 µM | < 5 µM | 3.3 µM |
| CCCCCCCCCCCCCn1cc(CC(N)(CO)CO)nn1 [Compound 11, 2-Amino-2-((1-tridecyl-1H-1,2,3-triazol-4-yl)methyl)propane-1,3-diol hydrochloride] | < 5 µM | 4.2 µM | < 10 µM | 5.31 µM |
| 2-Amino-2-((1-pentadecyl-1H-1,2,3-triazol-4-yOmethyl)propane-1,3-diol hydrochloride [Compound 5] | – | – | – | 3.5 µM |
| CCCCCCCCCCCCCCCCCCCCn1cc(CC(CO)(COC)NC)nn1 (stereo not shown) [Compound 12, 3-(1-Icosyl-1H-1,2,3-triazol-4-yl)-2-(methoxymethyl)-2-(methylamino)propan-1-ol] | < 5 µM | 4.68 µM | < 5 µM | 2.99 µM |
